Patent US9447135B2, “Semi-synthetic mithramycin derivatives with anti-cancer activity” (UNIVERSITY OF KENTUCKY RESEARCH FOUNDATION, priority 2012, dated 2016)

Columns and labels:
[1] = system: several cancer cell lines; settings: cited from earlier work
[2] = system: Ewing sarcoma (TC32, 5838, SKES1) and non-Ewing (A459 (lung) and PC3 (prostate)) cancer cell lines; assay: Selectivity assay, Ewing sarcoma versus non-Ewing cell panel (72 hr cytotoxicity)
[3] = system: A549, human non-small cell lung cancer cells; assay: 72 hour cytotoxicity, A549 (resazurin); format: cell-based; settings: non-Ewing sarcoma cell line A549, 72 hour
Description: The cytotoxic effects of the side chain modifications of SA were investigated in order to determine whether the modification were beneficial to the drug structure. All cytotoxicity assays were performed with A549, human non-small cell lung cancer cells. A549 cells were cultured as specified from ATCC at 37° C., 5% CO2. The cells were added to a 96 well plate (5,000 cells/well) and permitted to attach for 24 h. After 24 h culture media were replaced with the side chain modified MTM SA derivative containing media at differing concentrations. The cells were incubated with the drug containing media for 72 hrs total (n=8). Cell viability was determined using a resazurin assay that signifies mitochondrial metabolic activity in living cells. […] of a 1 mM resazurin solution in PBS was added to the control and analogue-treated cells at the end of the treatment period. Cell viability was determined three hours later by reading the fluorescence at 560 nm (Ex)/590 nm (Em). The fluorescence signals were quantified using a Spectramax M5 plate reader (Molecular Devices) equipped with a SoftMaxPro software. Cytotoxicity was determined by calculating the half maximal inhibitory concentration (IC50) of each sample.
(§1) The cytotoxicity of a subgroup of the MTM SA analogues was tested against various Ewing sarcoma cell lines and non-Ewing sarcoma cell lines over a 72 hour period. Each analogue was checked individually with a range of concentrations to determine the IC50 of the molecule in actively growing cell cultures.

[4] = system: SK-ES-1 Ewing sarcoma cell line; assay: 72 hour cytotoxicity, SK-ES-1; format: cell-based; settings: Ewing sarcoma cell line SK-ES-1, 72 hour
Description: as §1

[5] = system: ES-8 Ewing sarcoma cell line; assay: 72 hour cytotoxicity, ES-8; format: cell-based; settings: Ewing sarcoma cell line ES-8, 72 hour
Description: as §1

[6] = system: U118 non-Ewing sarcoma cell line; assay: 72 hour cytotoxicity, U118; format: cell-based; settings: non-Ewing sarcoma cell line U118, 72 hour
Description: as §1

[7] = system: ES-3 Ewing sarcoma cell line; assay: 72 hour cytotoxicity, ES-3; format: cell-based; settings: Ewing sarcoma cell line ES-3, 72 hour
Description: as §1

[8] = system: ES-2 Ewing sarcoma cell line; assay: 72 hour cytotoxicity, ES-2; format: cell-based; settings: Ewing sarcoma cell line ES-2, 72 hour
Description: as §1

[9] = system: 5838 Ewing sarcoma cell line; assay: 72 hour cytotoxicity, 5838; format: cell-based; settings: Ewing sarcoma cell line 5838, 72 hour
Description: as §1

[10] = system: ES-4 Ewing sarcoma cell line; assay: 72 hour cytotoxicity, ES-4; format: cell-based; settings: Ewing sarcoma cell line ES-4, 72 hour
Description: as §1

[11] = system: TC32 Ewing sarcoma cell line; assay: 72 hour cytotoxicity, TC32; format: cell-based; settings: Ewing sarcoma cell line TC32, 72 hour; read-out: IC50 (nM) TC 32
Description: as §1

[12] = system: ES-7 Ewing sarcoma cell line; assay: 72 hour cytotoxicity, ES-7; format: cell-based; settings: Ewing sarcoma cell line ES-7, 72 hour
Description: as §1

[13] = system: TC71 Ewing sarcoma cell line; assay: 72 hour cytotoxicity, TC71; format: cell-based; settings: Ewing sarcoma cell line TC71, 72 hour
Description: as §1

[14] = system: HCT-116 non-Ewing sarcoma cell line; assay: 72 hour cytotoxicity, HCT-116; format: cell-based; settings: non-Ewing sarcoma cell line HCT-116, 72 hour
Description: as §1

[15] = system: RDES Ewing sarcoma cell line; assay: 72 hour cytotoxicity, RDES; format: cell-based
Description: as §1

[16] = system: VCaP non-Ewing sarcoma cell line; assay: 72 hour cytotoxicity, VCaP; format: cell-based
Description: as §1

[17] = system: A673 Ewing sarcoma cell line; assay: 72 hour cytotoxicity, A673; format: cell-based; settings: Ewing sarcoma cell line A673, 72 hour
Description: as §1

[18] = 72 hour cytotoxicity, RH30; format: cell-based; settings: Ewing sarcoma cell line RH30, 72 hour; read-out: IC50 (nM) RH 30
Description: as §1

SMILES	IC50 [3] [nM]	IC50 [4] [nM]	IC50 [5] [nM]	IC50 [6] [nM]	IC50 [7] [nM]	IC50 [8] [nM]	IC50 [9] [nM]	IC50 [10] [nM]	IC50 [11] [nM]	IC50 [12] [nM]	IC50 [13] [nM]	further results
COC(C(=O)O)[C@@H]1Cc2cc3cc(OC4CC(OC5CC(O)C(O)C(C)O5)C(O)C(C)O4)c(C)c(O)c3c(O)c2C(=O)[C@H]1OC1CC(OC2CC(OC3CC(C)(O)C(O)C(C)O3)C(O)C(C)O2)C(O)C(C)O1 (stereo partly drawn) [MTM SA, mithramycin side chain carboxylic acid]	–	–	–	–	–	–	–	–	–	–	–	activity compared to the parent MTM [1]: significantly decreased activity
COC(=O)[C@H](C)NC(=O)[C@@H](OC)[C@@H]1Cc2cc3cc(OC4CC(OC5CC(O)C(O)C(C)O5)C(O)C(C)O4)c(C)c(O)c3c(O)c2C(=O)[C@H]1OC1CC(OC2CC(OC3CC(C)(O)C(O)C(C)O3)C(O)C(C)O2)C(O)C(C)O1 (stereo partly drawn) [MTM SA-Ala]	–	–	–	–	–	–	–	–	–	–	–	selectivity against Ewing sarcoma cells relative to non-Ewing cells ([2]; FIG. 9, right panel): 9 fold; less potent than MTM ([2]; against Ewing sarcoma cells, relative to MTM): about 200 fold; higher selectivity than MTM against Ewing sarcoma relative to non-Ewing cell lines ([2]; relative to MTM, 72 hr): 3 fold
CO[C@H](C(=O)C(C)=O)[C@@H]1Cc2cc3cc(OC4C[C@@H](OC5C[C@@H](O)[C@H](O)C(C)O5)[C@H](O)C(C)O4)c(C)c(O)c3c(O)c2C(=O)[C@H]1OC1C[C@@H](OC2C[C@@H](OC3C[C@](C)(O)[C@H](O)C(C)O3)[C@@H](O)C(C)O2)[C@H](O)C(C)O1 (stereo partly drawn) [MTM SDK]	–	–	–	–	–	–	–	–	–	–	–	activity compared to the parent MTM [1]: increased activity
COc1ccc2[nH]cc(CCNC(=O)[C@@H](OC)[C@@H]3Cc4cc5cc(OC6CC(OC7CC(O)C(O)C(C)O7)C(O)C(C)O6)c(C)c(O)c5c(O)c4C(=O)[C@H]3OC3CC(OC4CC(OC5CC(C)(O)C(O)C(C)O5)C(O)C(C)O4)C(O)C(C)O3)c2c1 (stereo partly drawn) [MTMSA-5-OMe Trypamine]	84	63	75	58	157	84	78	63	73	79	58	–
COC(=O)[C@@H](OC)[C@@H]1Cc2cc3cc(OC4CC(OC5CC(O)C(O)C(C)O5)C(O)C(C)O4)c(C)c(O)c3c(O)c2C(=O)[C@H]1OC1CC(OC2CC(OC3CC(C)(O)C(O)C(C)O3)C(O)C(C)O2)C(O)C(C)O1 (stereo partly drawn) [MTMSA-Me ester]	99	86	47	38	90	76	193	41	67	51	46	–
COC(=O)[C@H](Cc1ccccc1)NC(=O)[C@@H](OC)[C@@H]1Cc2cc3cc(O[C@H]4C[C@@H](O[C@H]5C[C@@H](O)[C@H](O)[C@@H](C)O5)[C@H](O)[C@@H](C)O4)c(C)c(O)c3c(O)c2C(=O)[C@H]1O[C@H]1C[C@@H](O[C@H]2C[C@@H](O[C@H]3C[C@](C)(O)[C@H](O)[C@@H](C)O3)[C@H](O)[C@@H](C)O2)[C@H](O)[C@@H](C)O1 [MTMSA-Phe]	398	–	59	–	363	182	–	35	–	61	–	IC50 [14]: 21 nM; IC50 [15]: 94 nM; potency and selectivity in killing of Ewing sarcoma cells ([2]; compared with other MTM SA derivatives, FIG. 10): even more potent and highly selective in killing of Ewing sarcoma cells than other MTM SA derivatives; IC50 [16]: 32 nM; IC50 [17]: 109 nM; IC50 [18]: 136 nM
CO[C@H](C(=O)NCCc1c[nH]c2ccc(O)cc12)[C@@H]1Cc2cc3cc(OC4CC(OC5CC(O)C(O)C(C)O5)C(O)C(C)O4)c(C)c(O)c3c(O)c2C(=O)[C@H]1OC1CC(OC2CC(OC3CC(C)(O)C(O)C(C)O3)C(O)C(C)O2)C(O)C(C)O1 (stereo partly drawn) [MTMSA-Serotonin]	> 3000	612	676	916	658	749	690	610	667	753	671	–
CO[C@H](C(=O)NCCc1c[nH]c2ccccc12)[C@@H]1Cc2cc3cc(OC4CC(OC5CC(O)C(O)C(C)O5)C(O)C(C)O4)c(C)c(O)c3c(O)c2C(=O)[C@H]1OC1CC(OC2CC(OC3CC(C)(O)C(O)C(C)O3)C(O)C(C)O2)C(O)C(C)O1 (stereo partly drawn) [MTMSA-Tryptamine]	196	226	97	76	216	155	439	90	110	86	78	–
COC(=O)[C@H](Cc1ccc(O)cc1)NC(=O)[C@@H](OC)[C@@H]1Cc2cc3cc(OC4CC(OC5CC(O)C(O)C(C)O5)C(O)C(C)O4)c(C)c(O)c3c(O)c2C(=O)[C@H]1OC1CC(OC2CC(OC3CC(C)(O)C(O)C(C)O3)C(O)C(C)O2)C(O)C(C)O1 (stereo partly drawn) [MTMSA-Tyr]	867	306	171	231	266	263	170	138	133	189	130	–
